According to patent US20090305225A1, “Inhibition of Creatine Uptake to Promote Weight Loss” (priority 2005, published 2009):

Columns and labels:
[1] = tested on: creatine transporter (CrT) mRNA; assay: Real-Time PCR of creatine transporter mRNA in hypothalami of beta-GPA-treated rats; assay type: in vivo, rat; conditions: hypothalamus, normalized to L32 mRNA, not statistically significant, FIG. 4
Protocol: RNA was purified with […] (Promega) at 37 degrees C. for 30 min. The first strand of cDNA was synthesized by adding 1 ug of purified RNA from each sample to 20 ul containing MMLV reverse transcriptase (Invitrogen Life Tech). Creatine transporter (CrT) gene expression was further quantatified by Real-Time PCR using sense primer: 5′GGTAAGGGTGCAA GCCTTTG′ (SEQ ID NO: 1); antisense primer: 5′[…]-3′ (SEQ ID NO:2) and TaqMan probe: 5′[…]-3′ (SEQ ID NO: 3) (MMG-Biotech). The rat ribosomal protein L32 gene was used as a loading control. 1 ul of each cDNA sample derived from the 20 ul reverse transcription reaction and 1 ug RNA template was mixed with 24 ul master mixture (Perkin Elmer) in a 96-well TaqMan plate. The PCR was run in an ABI prism 7700 thermocycler (Applied Biosystems) at 50 degrees C. for 2 min and 95 degrees C. for 10 min, followed by 95 degrees C. for 15 sec and 60 degrees C. for 1 min for 40 cycles. The data were analyzed using software supplied with the ABI prism 7700.

[2] = assay type: physicochemical
Protocol: All animal handling was approved by and done in accordance with the guidelines and requirements of the University of Vermont Institutional Animal Care Use Committee. Adult male Sprague-Dawley rats (mycoplasma free; 200 g) were purchased from Charles River (Quebec, Canada) and housed in an air-conditioned (23+1 degree C.) room with lights on for 12 hours daily (starting at 6:00 a.m.) in the University of Vermont Animal Facility. Rats were housed singly in regular cages with free access to Purina Rat Chow (RMH 3000) and water for at least five days prior to surgery. Stereotactic surgery was used to implant chronic indwelling stainless steel cannulae into the third ventricle of the brain under fentanyl/droperidol anesthesia. Coordinates for cannula placement were obtained from the Konig Klippel stereotactic surgery atlas; with the nose bar 2.4 mm below the intraaural line and the vertical micrometer gantry tilted 9 degrees towards the animal, the coordinates were 4.9 mm dorsal to the intraaural line, 5 mm anterior to the intraaural line and 1.1 mm lateral to the midline. A minimum of 5 days later, animals were injected icv with beta-GPA (which was dissolved in saline at 50 degrees C. and the pH adjusted to 7.2-7.4 with dilute HCl) or other experimental compounds at the indicated concentrations. […] Food intakes were measured using powdered rat chow with daily weigh-backs as indicated. […]

Fos (c-fos protein) = assay: Fos immunohistochemistry of hypothalamic sections 4 hours after icv injection; assay type: in vivo, rat; conditions: 4 hours after icv 2 mg per rat, especially around the III ventricles
Protocol: In experiments involving immunohistochemistry, animals were injected icv with beta-GPA or with vehicle. Four hours after injection, animals were anesthetized with halothane and perfused through the left ventricle of the heart, initially with oxygenated Krebs buffer and then with ˜350 ml of 4% paraformaldehyde in 0.1M NaCl, pH 7.4 phosphate buffered saline (PBS). Brains were extracted from the skull, hypothalamic blocks dissected (by coronal cuts anterior and posterior to hypothalamic landmarks) and post-fixed in 4% paraformaldehyde solution at 4 degrees C. overnight. The following day, the blocks were transferred to 30% sucrose and incubated overnight at 4 degrees C. After freezing in Optimum Cutting Temperature (OCT) compound (Sakura, Japan), blocks were sectioned coronally at 40 um on a cryostat and sections individually floated in multi-well dishes filled with PBS. Sections were treated for 30 minutes with 0.4% Triton detergent in potassium PBS to aid in antibody penetration. Primary antibodies were added, the plates shaken gently for 1 hour at room temperature, then incubated at 4 degrees C. for 72 hours. Sections were then brought to room temperature while shaking and the primary antibody solution was removed by washing 3 times with PBS buffer. After removal of the last wash, the secondary antibody solution was added and the plates incubated for 2 hours at room temperature in the dark. Removal of the second antibody was achieved by washing three times with PBS buffer prior to mounting on subbed slides. They were allowed to dry, rewetted with PBS buffer and cover-slipped with Citifluor (Ted Pella, Reading, Calif.).
Fos studies were performed using indirect fluorescence visualization. The method utilized rabbit c-Fos-AB5 (1:2,000; Oncogene Research Products, Cambridge, Mass.) with goat anti-rabbit Cy3 (1:500; Jackson Immuno Research Laboratories, West Grove, Pa.) as the secondary antibody. […] Staining observed in experimental tissue was compared to that observed from experiment-matched negative controls. […] Immunoreactive Fos (Fos IR) was quantified by capturing images at 10× using MagnaFire 2.0 Software. These images were imported into the Metamorph 6.1 Software package and density of staining measured using Hue Saturation Intensity. Regions outlining nuclei were hand drawn with an electric pen and the total areas and stained areas measured to yield percentages of total areas with specific Fos-IR. The values for left and right dorsomedial nuclei in each rat were averaged, and the averages used to calculate means. In the case of the III ventricle, the entire image was used for quantification prior to calculating the percentage of the area with Fos-IR.

[3] = Body weight and food intake after icv administration of beta-GPA in rats; assay type: in vivo, rat
Protocol: All animal handling was approved by and done in accordance with the guidelines and requirements of the University of Vermont Institutional Animal Care Use Committee. Adult male Sprague-Dawley rats (mycoplasma free; 200 g) were purchased from Charles River (Quebec, Canada) and housed in an air-conditioned (23+1 degree C.) room with lights on for 12 hours daily (starting at 6:00 a.m.) in the University of Vermont Animal Facility. Rats were housed singly in regular cages with free access to Purina Rat Chow (RMH 3000) and water for at least five days prior to surgery. Stereotactic surgery was used to implant chronic indwelling stainless steel cannulae into the third ventricle of the brain under fentanyl/droperidol anesthesia. Coordinates for cannula placement were obtained from the Konig Klippel stereotactic surgery atlas; with the nose bar 2.4 mm below the intraaural line and the vertical micrometer gantry tilted 9 degrees towards the animal, the coordinates were 4.9 mm dorsal to the intraaural line, 5 mm anterior to the intraaural line and 1.1 mm lateral to the midline. A minimum of 5 days later, animals were injected icv with beta-GPA (which was dissolved in saline at 50 degrees C. and the pH adjusted to 7.2-7.4 with dilute HCl) or other experimental compounds at the indicated concentrations. Control animals received equal volumes of vehicle. Volumes of icv injections never exceeded 10 ul per animal and were administered over 5-10 seconds. In some experiments, animals received two or more icv injections on the same or different days. Measures of body weight were made daily with a digital balance with a 6 second integration period to minimize the effects of animal movement. For experiments involving measurement of food intake, after stereotactic surgery animals were housed in individual Nalgene metabolic cages and given additional time for acclimation to the cage and feeding system. Food intakes were measured using powdered rat chow with daily weigh-backs as indicated.

[4] = icv 1 mg, 2 mg or 3 mg per animal, FIG. 2
[5] = icv 2 mg/rat, single dose, FIG. 1

Question: With N=C(N)NCCC(=O)O [beta-GPA, 3-guanidopropionic acid] as the molecule, how does the “relative units of CrT gene expression versus vehicle-treated animals” value [1] read?
Answer: slight decrease

Question: What about the “usability of a five-fold greater icv dose (10 mg)” value [2] of the same molecule?
Answer: not usable because of solubility dictates

Question: What about the “Fos IR” value (Fos (c-fos protein)) of the same molecule?
Answer: increased

Question: And the body weight [3, 4]?
Answer: decreased in a dose-dependent fashion

Question: And the food intake [3, 4]?
Answer: decreased in a dose-dependent fashion

Question: And the “time until body weight and food intake returned to values indistinguishable from vehicle-treated animals” value ([3]; icv 2 mg/rat, single dose)?
Answer: four

Question: What about the body weight [3, 5] of the same molecule?
Answer: modest decreases

Question: And the food intake [3, 5]?
Answer: modest decreases

Question: And the “effect of icv dose (body weight and food intake)” value ([3]; icv, 0.04 mg, five-fold lower dose, dose-ranging study)?
Answer: without effect

Question: And the “magnitude of body weight and food intake effects after a second identical dosage” value ([3]; second icv dose seven days after the first, FIG. 2)?
Answer: enhanced considerably
